These results are taken from patent publication US20200405696A1, “INHIBITORS OF INDOLEAMINE 2,3-DIOXYGENASE AND/OR TRYPTOPHAN 2,3-DIOXYGENASE” (IDORSIA PHARMACEUTICALS LTD, priority 2018, published 2020).

In assay [1] the target is T1, Recombinant full-length human IDO1 (Homo sapiens, UniProt P14902).
T1 construct: Recombinant full-length human IDO1 with a N-terminal hexahistidine tag; hexahistidine (His6) (N); made in house; host or cells: E. coli
Put plainly: IDO1 enzymatic assay (NFK quantified by LCMS). Type of assay: biochemical. The following applies: 2 nM enzyme, 5 μM L-tryptophan, pH6.5, 30 minutes pre-incubation at RT; mean values when measured multiple times; read-out: hIDO activity (IC50 in nM). In outline: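 IC50 comes from four-parameter logistic fits of duplicate data, with NFK quantified by LCMS and normalized to L-Trp-(indole-d5). Compound (0.5 nM–10 μM) was preincubated 30 min at RT with 2 nM E. coli-expressed IDO1 before a 30 min reaction with 5 μM tryptophan in pH 6.5 buffer containing ascorbate and methylene blue.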

Assay [2] has as its target T2, Recombinant human TDO comprising amino acids 19-407 (Homo sapiens, UniProt P48775).
T2 construct: Recombinant human TDO comprising amino acids 19-407 with a N-terminal hexahistidine tag; hexahistidine (His6) (N); made in house; host or cells: E. coli
The assay can be described thus: TDO2 enzymatic assay (NFK quantified by LCMS). The class given is biochemical. Particulars: 15 nM enzyme, 200 μM L-tryptophan, pH7, 30 minutes pre-incubation at RT; mean values when measured multiple times; read-out: hTDO activity (IC50 in nM). The procedure, abridged:
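NFK formed over 30 min at RT from 200 μM L-tryptophan was measured by LCMS, normalized to d5-tryptophan, after compound (0.5 nM–10 μM, duplicates, 0.6% DMSO) was preincubated 30 min with 15 nM recombinant His-tagged TDO 19-407 in phosphate buffer pH 7. IC50 from four-parameter logistic fit; repeats averaged.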

T1 sequence (P14902 whole entry): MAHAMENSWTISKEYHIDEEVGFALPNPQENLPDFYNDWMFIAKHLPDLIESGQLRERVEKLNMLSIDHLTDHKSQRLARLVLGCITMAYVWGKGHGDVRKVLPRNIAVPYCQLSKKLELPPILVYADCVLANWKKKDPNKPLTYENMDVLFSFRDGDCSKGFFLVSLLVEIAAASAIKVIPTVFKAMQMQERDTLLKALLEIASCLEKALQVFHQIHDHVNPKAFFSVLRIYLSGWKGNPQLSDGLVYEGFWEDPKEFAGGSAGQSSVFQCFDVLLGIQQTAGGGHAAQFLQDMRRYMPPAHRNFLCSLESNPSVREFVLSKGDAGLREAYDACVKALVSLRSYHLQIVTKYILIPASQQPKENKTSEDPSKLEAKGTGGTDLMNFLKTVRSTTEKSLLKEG
T2 sequence (P48775 19-406 limits assumed): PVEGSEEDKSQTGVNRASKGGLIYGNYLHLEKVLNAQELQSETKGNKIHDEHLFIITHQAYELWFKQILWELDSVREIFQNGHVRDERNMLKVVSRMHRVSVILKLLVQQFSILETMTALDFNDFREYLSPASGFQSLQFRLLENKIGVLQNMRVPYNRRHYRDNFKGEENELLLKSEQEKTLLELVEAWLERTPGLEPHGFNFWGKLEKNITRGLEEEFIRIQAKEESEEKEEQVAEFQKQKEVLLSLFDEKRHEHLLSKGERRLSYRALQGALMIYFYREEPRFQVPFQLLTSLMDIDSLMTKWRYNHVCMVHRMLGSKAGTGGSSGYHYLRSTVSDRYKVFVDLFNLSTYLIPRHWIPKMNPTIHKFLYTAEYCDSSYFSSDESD

Regarding `CN(C)C(=O)c1ccc(-n2cc(C(O)c3c(C4CC4)sc4cncn34)nn2)cc1` (racemic) [Example 195, rac-4-{4-[(2-Cyclopropyl-imidazo[5,1-b]thiazol-3-yl)-hydroxy-methyl]-[1,2,3]triazol-1-yl}-N,N-dimethyl-benzamide], the results for the half-inhibitory concentration (IC50) in assay [1] and in assay [2] were 145 nM and above 10200 nM, respectively.

Consider `COc1ccc(-n2nnc(C(O)c3c(C4CC4)sc4cncn34)c2F)cc1` (racemic) [Example 336, rac-(2-Cyclopropyl-imidazo[5,1-b]thiazol-3-yl)-[5-fluoro-1-(4-methoxy-phenyl)-1H-[1,2,3]triazol-4-yl]-methanol], for which the IC50 – broadly, the concentration needed to halve the response being measured – in assay [1] was 32.7 nM; in assay [2], above 10200 nM.

Consider `COc1ccc(-n2cc(C(O)c3c(C)sc4cncn34)cn2)cc1` (racemic) [Example 97, rac-[1-(4-Methoxy-phenyl)-1H-pyrazol-4-yl]-(2-methyl-imidazo[5,1-b]thiazol-3-yl)-methanol], for which the IC50 in assay [1] was found to be 121 nM; in assay [2] it was 1940 nM.

As to `OC(c1nnc(-c2ccccc2)s1)c1c(C2CC2)sc2cncn12` (racemic) [Example 175, rac-(2-Cyclopropyl-imidazo[5,1-b]thiazol-3-yl)-(5-phenyl-[1,3,4]thiadiazol-2-yl)-methanol], the results for the IC50 in assay [1] and in assay [2] were 122 nM and above 10200 nM, respectively.

With `Oc1ccc(-n2cc(C(O)c3c(C4CC4)sc4cncn34)nn2)cc1Cl` (racemic) [Example 148, rac-2-Chloro-4-{4-[(2-cyclopropyl-imidazo[5,1-b]thiazol-3-yl)-hydroxy-methyl]-[1,2,3]triazol-1-yl}-phenol], the concentration for half-maximal inhibition (IC50) in assay [1] was determined as 4.31 nM; in assay [2], 5130 nM.

Consider `O=C(NCc1ccco1)c1ccc(-n2cc(C(O)c3c(C4CC4)sc4cncn34)nn2)cc1` (racemic) [Example 190, rac-4-{4-[(2-Cyclopropyl-imidazo[5,1-b]thiazol-3-yl)-hydroxy-methyl]-[1,2,3]triazol-1-yl}-N-furan-2-ylmethyl-benzamide], for which the IC50 in assay [1] is 8.8 nM; in assay [2], above 10200 nM.

Consider `Cc1sc2cncn2c1C(O)c1cc(-c2ccccc2)no1` (racemic) [Example 156, rac-(2-Methyl-imidazo[5,1-b]thiazol-3-yl)-(3-phenyl-isoxazol-5-yl)-methanol], for which the IC50 in assay [1] is 406 nM; in assay [2] it was above 10200 nM.

As to `O=c1[nH]c2ccc(-n3cc(C(O)c4c(C5CC5)sc5cncn45)nn3)cc2o1` (racemic) [Example 179, rac-6-{4-[(2-Cyclopropyl-imidazo[5,1-b]thiazol-3-yl)-hydroxy-methyl]-[1,2,3]triazol-1-yl}-3H-benzooxazol-2-one], the IC50 is 5.36 nM in assay [1] and above 10200 nM in assay [2].

On to `OC(c1cn(-c2cccc3cc[nH]c23)nn1)c1c(C2CC2)sc2cncn12` (racemic) [Example 27, rac-(2-Cyclopropyl-imidazo[5,1-b]thiazol-3-yl)-[1-(1H-indol-7-yl)-1H-[1,2,3]triazol-4-yl]-methanol], for which the IC50 in assay [1] was 24.1 nM; in assay [2], above 10200 nM.

For `CC(C)(C)C(=O)Nc1ccc(-n2cc(C(O)c3c(C4CC4)sc4cncn34)nn2)cc1` (racemic) [Example 187, rac-N-(4-{4-[(2-Cyclopropyl-imidazo[5,1-b]thiazol-3-yl)-hydroxy-methyl]-[1,2,3]triazol-1-yl}-phenyl)-2,2-dimethyl-propionamide], the IC50 in assay [1] is 13.7 nM; in assay [2] it was above 10200 nM.

Turning to `OC(c1cn(-c2ccccc2)nn1)c1c(C2CCCC2)sc2cncn12` (racemic) [Example 13, rac-(2-Cyclopentyl-imidazo[5,1-b]thiazol-3-yl)-(1-phenyl-1H-[1,2,3]triazol-4-yl)-methanol], the IC50 in assay [1] was found to be 54.4 nM; in assay [2], 8410 nM.

Turning to `CC(C)(O)CCOc1ccc(-n2cc([C@H](O)c3c(C4CC4)sc4cncn34)nn2)cc1` [Example 140a, 4-(4-{4-[(R)-(2-Cyclopropyl-imidazo[5,1-b]thiazol-3-yl)-hydroxy-methyl]-[1,2,3]triazol-1-yl}-phenoxy)-2-methyl-butan-2-ol], the IC50 in assay [1] was 7.31 nM; in assay [2] it was above 10200 nM.

As for `N#Cc1ccc(-n2cc(C(O)c3c(C4CC4)sc4cncn34)nn2)cc1O` (racemic) [Example 233, rac-4-{4-[(2-Cyclopropyl-imidazo[5,1-b]thiazol-3-yl)-hydroxy-methyl]-[1,2,3]triazol-1-yl}-2-hydroxy-benzonitrile], the IC50 in assay [1] is 20.3 nM; in assay [2], above 10200 nM.

With `C=C(C)c1sc2cncn2c1C(O)c1cn(-c2ccc(OCCC(C)(C)O)c(Cl)c2)nn1` (racemic) [Example 293, rac-4-(2-Chloro-4-{4-[hydroxy-(2-isopropenyl-imidazo[5,1-b]thiazol-3-yl)-methyl]-[1,2,3]triazol-1-yl}-phenoxy)-2-methyl-butan-2-ol], the IC50 in assay [1] is 17.6 nM; in assay [2], above 10200 nM.

Consider `CCN(C)C(=O)c1ccc(-n2cc(C(O)c3c(C4CC4)sc4cncn34)nn2)cc1` (racemic) [Example 191, rac-4-{4-[(2-Cyclopropyl-imidazo[5,1-b]thiazol-3-yl)-hydroxy-methyl]-[1,2,3]triazol-1-yl}-N-ethyl-N-methyl-benzamide], for which the figures for the IC50 in assay [1] and in assay [2] were 109 nM and above 10200 nM, respectively.

For `NS(=O)(=O)c1ccc(-n2cc(C(O)c3c(C4CC4)sc4cncn34)nn2)cc1` (racemic) [Example 235, rac-4-{4-[(2-Cyclopropyl-imidazo[5,1-b]thiazol-3-yl)-hydroxy-methyl]-[1,2,3]triazol-1-yl}-benzenesulfonamide], the values for the half-inhibitory concentration (IC50) in assay [1] and in assay [2] were 24.3 nM and above 10200 nM, respectively.

For the compound `CC(C)(O)CCOc1ccc(-n2cc([C@H](O)c3c(-c4ccccc4)sc4cncn34)nn2)cc1Cl` [Example 268a, 4-(2-Chloro-4-{4-[(R)-hydroxy-(2-phenyl-imidazo[5,1-b]thiazol-3-yl)-methyl]-[1,2,3]triazol-1-yl}-phenoxy)-2-methyl-butan-2-ol], the IC50 in assay [1] came to 123 nM; in assay [2] it was 10000 nM.

Take `Cc1cc(O)cc(-n2cc(C(O)c3c(C4CC4)sc4cncn34)nn2)c1` (racemic) [Example 220, rac-3-{4-[(2-Cyclopropyl-imidazo[5,1-b]thiazol-3-yl)-hydroxy-methyl]-[1,2,3]triazol-1-yl}-5-methyl-phenol]: the IC50 in assay [1] is 27.2 nM; in assay [2], above 10200 nM.

As for `COc1ccc(-n2cc(C(O)c3c(-c4ccc(F)cc4)sc4cncn34)nn2)cc1` (racemic) [Example 286, rac-[2-(4-Fluoro-phenyl)-imidazo[5,1-b]thiazol-3-yl]-[1-(4-methoxy-phenyl)-1H-[1,2,3]triazol-4-yl]-methanol], the results for the IC50 in assay [1] and in assay [2] were 704 nM and above 10200 nM, respectively.

As to `COCCNC(=O)c1ccc(-n2cc(C(O)c3c(C4CC4)sc4cncn34)nn2)cc1` (racemic) [Example 102, rac-4-{4-[(2-Cyclopropyl-imidazo[5,1-b]thiazol-3-yl)-hydroxy-methyl]-[1,2,3]triazol-1-yl}-N-(2-methoxy-ethyl)-benzamide], the half-inhibitory concentration (IC50) in assay [1] is 23.2 nM; in assay [2] it was above 10200 nM.

In the case of `O=[N+]([O-])c1cc(-n2cc(C(O)c3c(C4CC4)sc4cncn34)nn2)ccc1O` (racemic) [Example 248, rac-4-{4-[(2-Cyclopropyl-imidazo[5,1-b]thiazol-3-yl)-hydroxy-methyl]-[1,2,3]triazol-1-yl}-2-nitro-phenol], the IC50 in assay [1] was 2.6 nM; in assay [2] it was 4710 nM.

Regarding `OC(c1cnn(-c2ccccc2)c1)c1c(C2CC2)sc2cncn12` (racemic) [Example 100, rac-(2-Cyclopropyl-imidazo[5,1-b]thiazol-3-yl)-(1-phenyl-1H-pyrazol-4-yl)-methanol], the values for the IC50 in assay [1] and in assay [2] were 41.8 nM and 3350 nM, respectively.

Regarding `C=CCNC(=O)c1ccc(-n2cc(C(O)c3c(C4CC4)sc4cncn34)nn2)cc1` (racemic) [Example 193, rac-N-Allyl-4-{4-[(2-cyclopropyl-imidazo[5,1-b]thiazol-3-yl)-hydroxy-methyl]-[1,2,3]triazol-1-yl}-benzamide], the IC50 in assay [1] is 9.02 nM; in assay [2] it was above 10200 nM.

With `OCC1(c2ccc(-n3cc(C(O)c4c(C5CC5)sc5cncn45)nn3)cc2)CC1` (racemic) [Example 40, rac-(2-Cyclopropyl-imidazo[5,1-b]thiazol-3-yl)-{1-[4-(1-hydroxymethyl-cyclopropyl)-phenyl]-1H-[1,2,3]triazol-4-yl}-methanol], the figures for the IC50 in assay [1] and in assay [2] were 68.3 nM and above 10200 nM, respectively.

Turning to `Cc1sc2cncn2c1C(O)c1cn(-c2ccc(OCC3CC3)cc2)nn1` (racemic) [Example 63, rac-[1-(4-Cyclopropylmethoxy-phenyl)-1H-[1,2,3]triazol-4-yl]-(2-methyl-imidazo[5,1-b]thiazol-3-yl)-methanol], the IC50 in assay [1] is 27.7 nM; in assay [2] it was above 10200 nM.

For the compound `C=C(C)c1sc2cncn2c1C(O)c1cn(-c2ccc(OCCCO)c(Cl)c2)nn1` (racemic) [Example 301, rac-3-(2-Chloro-4-{4-[hydroxy-(2-isopropenyl-imidazo[5,1-b]thiazol-3-yl)-methyl]-[1,2,3]triazol-1-yl}-phenoxy)-propan-1-ol], the IC50 in assay [1] was 25.1 nM; in assay [2], above 10200 nM.
